Assay results published in ChEMBL document CHEMBL1201862, “PubChem BioAssay data set” (2004).
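Results reflect a 48-hour exposure of cells in 96-well plates to compound at five concentrations. GI50 = concentration required for 50% inhibition of growth.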 Calls of active or inactive are those of the source. No stated cut-off is given here; in the data, active = GI50 up to about 1.1 µM and inactive = higher.

Tests used:
Assay in all cases: NCI anticancer screen, dose series, 48 h
KM12 = tested on: KM12
MCF7 = tested on: MCF7
NCI-H226 = tested on: NCI-H226
NCI-H460 = tested on: NCI-H460
PC-3 = tested on: PC-3
HCT-116 = tested on: HCT-116
SR = tested on: SR
HOP-62 = tested on: HOP-62
ACHN = tested on: ACHN
SK-MEL-5 = tested on: SK-MEL-5
U-251 = tested on: U-251
T47D = tested on: T47D
MDA-MB-435 = tested on: MDA-MB-435
SNB-19 = tested on: SNB-19
SK-MEL-28 = tested on: SK-MEL-28
NCI-H522 = tested on: NCI-H522
UO-31 = tested on: UO-31
HL-60 = tested on: HL-60
BT-549 = tested on: BT-549

Compound | GI50 (KM12) | GI50 (MCF7) | GI50 (NCI-H226) | GI50 (NCI-H460) | GI50 (PC-3) | GI50 (HCT-116) | GI50 (SR) | GI50 (HOP-62) | GI50 (ACHN) | GI50 (SK-MEL-5) | GI50 (U-251) | GI50 (T47D) | GI50 (MDA-MB-435) | GI50 (SNB-19) | GI50 (SK-MEL-28) | GI50 (NCI-H522) | GI50 (UO-31) | GI50 (HL-60) | GI50 (BT-549)
CCOC(=O)/C(C#N)=C/c1ccc(CO)o1 | > 100 µM (inactive) | > 100 µM (inactive) | > 100 µM (inactive) | > 100 µM (inactive) | > 100 µM (inactive) | > 100 µM (inactive) | > 100 µM (inactive) | > 100 µM (inactive) | > 100 µM (inactive) | > 100 µM (inactive) | > 100 µM (inactive) | > 100 µM (inactive) | > 100 µM (inactive) | > 100 µM (inactive) | > 100 µM (inactive) | > 100 µM (inactive) |  |  | 
C#CCn1c(=O)c2ccccc2n(CC#C)c1=O | > 10 µM (inactive) | > 10 µM (inactive) | > 10 µM (inactive) | > 10 µM (inactive) | > 10 µM (inactive) | > 10 µM (inactive) |  | > 10 µM (inactive) | > 10 µM (inactive) | > 10 µM (inactive) | > 10 µM (inactive) | > 10 µM (inactive) | > 10 µM (inactive) | > 10 µM (inactive) | > 10 µM (inactive) | > 10 µM (inactive) | > 10 µM (inactive) |  | 
NC1=C(N2CCCCC2)C(=O)NC2=N/C(=C\c3ccccc3)C(=O)N21 | > 100 µM (inactive) | > 100 µM (inactive) | > 100 µM (inactive) | > 100 µM (inactive) |  | > 100 µM (inactive) | 43.7 µM (inactive) |  | > 100 µM (inactive) | > 100 µM (inactive) | > 100 µM (inactive) | > 100 µM (inactive) | > 100 µM (inactive) | > 100 µM (inactive) | > 100 µM (inactive) | 63.2 µM (inactive) | > 100 µM (inactive) | 32 µM (inactive) | 
COC(=O)C1CCC(=S)N1C(C)=O (stereo not given) | > 100 µM (inactive) | > 100 µM (inactive) |  | > 100 µM (inactive) | > 100 µM (inactive) | > 100 µM (inactive) |  | > 100 µM (inactive) | > 100 µM (inactive) | > 100 µM (inactive) | > 100 µM (inactive) |  | > 100 µM (inactive) | > 100 µM (inactive) | > 100 µM (inactive) | > 100 µM (inactive) | > 100 µM (inactive) |  | > 100 µM (inactive)
Cc1c/c(=N/NC(=O)c2ccncc2)n2nc(N)sc2n1 | > 100 µM (inactive) | > 100 µM (inactive) | > 100 µM (inactive) | > 100 µM (inactive) | > 100 µM (inactive) | > 100 µM (inactive) | > 100 µM (inactive) | > 100 µM (inactive) | > 100 µM (inactive) | > 100 µM (inactive) | > 100 µM (inactive) |  | > 100 µM (inactive) | > 100 µM (inactive) | > 100 µM (inactive) | > 100 µM (inactive) | > 100 µM (inactive) | > 100 µM (inactive) | > 100 µM (inactive)
N=C(N)NCCCC(NC(=O)c1c2ccccc2nc2ccccc12)C(=O)O (stereo not given) | > 100 µM (inactive) | > 100 µM (inactive) | > 100 µM (inactive) | > 100 µM (inactive) | > 100 µM (inactive) | > 100 µM (inactive) | > 100 µM (inactive) | > 100 µM (inactive) | > 100 µM (inactive) | > 100 µM (inactive) | > 100 µM (inactive) |  | > 100 µM (inactive) | > 100 µM (inactive) | > 100 µM (inactive) | > 100 µM (inactive) | > 100 µM (inactive) |  | > 100 µM (inactive)
CNC1=Nc2ccccc2C(=S)N2CSC[C@@H]12 | > 100 µM (inactive) | > 100 µM (inactive) |  | > 100 µM (inactive) | > 100 µM (inactive) | > 100 µM (inactive) | 7.55 µM (inactive) | > 100 µM (inactive) | > 100 µM (inactive) | > 100 µM (inactive) | > 100 µM (inactive) | > 100 µM (inactive) | > 100 µM (inactive) | > 100 µM (inactive) | > 100 µM (inactive) | > 100 µM (inactive) | > 100 µM (inactive) |  | 
Cc1c(-c2ccccn2)ccc2ccccc12 | 82.8 µM (inactive) | 88.7 µM (inactive) | 43 µM (inactive) | 42.4 µM (inactive) | 47.3 µM (inactive) | 43.4 µM (inactive) | 56.1 µM (inactive) | > 100 µM (inactive) | 52.7 µM (inactive) | 35.7 µM (inactive) | 93.5 µM (inactive) | 39.2 µM (inactive) | 48.5 µM (inactive) | > 100 µM (inactive) | 85.5 µM (inactive) |  | 32.7 µM (inactive) | 44.6 µM (inactive) | 
N=C(N)N/N=C/c1cc(Cl)cc(Cl)c1O | 45.1 µM (inactive) | 44.6 µM (inactive) | 46.6 µM (inactive) | 69.5 µM (inactive) | 36.7 µM (inactive) | 57 µM (inactive) |  | > 100 µM (inactive) | 56.6 µM (inactive) | 37.4 µM (inactive) | 48.5 µM (inactive) | 32.2 µM (inactive) | 53.5 µM (inactive) | 94.2 µM (inactive) | 86.9 µM (inactive) | 56.5 µM (inactive) | 29.7 µM (inactive) | 33.2 µM (inactive) | 
O[C@H]1[C@@H]2OC[C@@H](O)[C@H](OCc3ccccc3)[C@@](COCc3ccccc3)(O2)[C@@H]1OCc1ccccc1 | 17.2 µM (inactive) | 19.3 µM (inactive) |  | 20.3 µM (inactive) | 13.2 µM (inactive) | 20.1 µM (inactive) | 38.5 µM (inactive) | 17.2 µM (inactive) | 16.7 µM (inactive) |  | 16 µM (inactive) |  | 17.3 µM (inactive) | 16.4 µM (inactive) | 14.1 µM (inactive) | 13.7 µM (inactive) | 16.7 µM (inactive) | 32.6 µM (inactive) | 17.7 µM (inactive)
CC(=O)OC1CC2CCC1(C)C2(C)C (stereo not given) | > 100 µM (inactive) | > 100 µM (inactive) | > 100 µM (inactive) | > 100 µM (inactive) | > 100 µM (inactive) | > 100 µM (inactive) |  | > 100 µM (inactive) | > 100 µM (inactive) |  | > 100 µM (inactive) | > 100 µM (inactive) | > 100 µM (inactive) | > 100 µM (inactive) | > 100 µM (inactive) | > 100 µM (inactive) | > 100 µM (inactive) | > 100 µM (inactive) | 
COC(C)(C)[C@@H]1CCCN1C1=C(C)C(=O)OC1 |  | > 100 µM (inactive) |  | > 100 µM (inactive) | > 100 µM (inactive) | > 100 µM (inactive) | > 100 µM (inactive) | > 100 µM (inactive) | > 100 µM (inactive) | > 100 µM (inactive) | > 100 µM (inactive) | > 100 µM (inactive) |  | > 100 µM (inactive) |  |  | > 100 µM (inactive) | > 100 µM (inactive) | 
O=C(/C=C/c1cccs1)c1ccccc1Cl | 7.31 µM (inactive) | 4.65 µM (inactive) | 32.8 µM (inactive) | 15.8 µM (inactive) | 15.4 µM (inactive) | 13 µM (inactive) | 4.2 µM (inactive) | 15.8 µM (inactive) | 14.8 µM (inactive) | 16.4 µM (inactive) | 13.5 µM (inactive) | 5.96 µM (inactive) | 10.9 µM (inactive) | 15.6 µM (inactive) | 16.3 µM (inactive) | 2.77 µM (inactive) | 0.615 µM (active) | 5.81 µM (inactive) | 
Fc1cc(C2=Nn3c(COc4ccccc4Cl)nnc3S/C2=C\c2ccc(Cl)cc2)c(Cl)cc1Cl | 3.21 µM (inactive) | 5.14 µM (inactive) | 20.6 µM (inactive) | 3.38 µM (inactive) | 12.3 µM (inactive) | 2.74 µM (inactive) | 4.39 µM (inactive) | 15.8 µM (inactive) | 4.66 µM (inactive) | 3.96 µM (inactive) | 3.2 µM (inactive) | 13.6 µM (inactive) | 2.26 µM (inactive) |  | 3.54 µM (inactive) | 5.5 µM (inactive) | 6.4 µM (inactive) | 4.49 µM (inactive) | 
CC(=O)/C(=C/n1ccc(=O)[nH]c1=S)C(=O)Nc1ccccc1C | > 100 µM (inactive) | > 100 µM (inactive) | > 100 µM (inactive) | > 100 µM (inactive) |  | > 100 µM (inactive) |  | > 100 µM (inactive) | > 100 µM (inactive) | > 100 µM (inactive) | > 100 µM (inactive) | > 100 µM (inactive) | > 100 µM (inactive) | > 100 µM (inactive) | > 100 µM (inactive) |  | > 100 µM (inactive) | 82.6 µM (inactive) | > 100 µM (inactive)
COC(C)(C)OCCN1CCN(CCN2C3=C(C=C(C(C)=O)C3)Sc3ccccc32)CC1 | 16.7 µM (inactive) |  | 22.9 µM (inactive) | 18.8 µM (inactive) | 24.8 µM (inactive) | 18 µM (inactive) | 15.6 µM (inactive) | 19.4 µM (inactive) | 18.1 µM (inactive) | 17.5 µM (inactive) | 18.5 µM (inactive) | 23.9 µM (inactive) | 16 µM (inactive) | 32.1 µM (inactive) | 16.4 µM (inactive) | 17.5 µM (inactive) | 25.1 µM (inactive) | 16.6 µM (inactive) | 21.6 µM (inactive)
N#Cc1cnn2cc[nH]c12 | > 100 µM (inactive) | > 100 µM (inactive) | > 100 µM (inactive) | > 100 µM (inactive) | > 100 µM (inactive) | > 100 µM (inactive) | > 100 µM (inactive) | > 100 µM (inactive) | > 100 µM (inactive) | > 100 µM (inactive) | > 100 µM (inactive) | > 100 µM (inactive) |  | > 100 µM (inactive) | > 100 µM (inactive) | > 100 µM (inactive) | > 100 µM (inactive) | > 100 µM (inactive) | > 100 µM (inactive)
